Assay results taken from patent US4499299A, “Pharmaceutically active phenylcarboxylic acid derivatives” (ICI Americas Inc., priority 1981, dated 1985).

tested on: isolated guinea pig trachea contracted by leukotriene C4 or D4 (SRS-A); test: Antagonism of leukotriene C4 or D4 induced contractions of isolated guinea pig trachea (SRS-A antagonist test); format: cell-based; conditions: inhibition of contraction induced by 8×10^-9 M LTD4 or LTC4, isolated guinea pig tracheal strip, indomethacin 5×10^-6 M present
Method: Male Hartley guinea pigs weighing 300-500 g are killed and exsanguinated. The trachea is immediately resected, cleaned of adhering connective tissue and cut into a spiral strip measuring approximately 3 to 5 mm ×20 to 25 mm. The strip is mounted in a 10 ml jacketed tissue bath by tying one end to a tissue hook and the opposite end to a Grass FT03C force-displacement transducer connected to an 8-channel Beckman Polygraph for recording contractile or relaxant responses. The tissue is bathed in modified Krebs' solution (37.5° C.) of the following composition (mM): NaCl, 119; KCl, 4.6; CaCl2, 1.8; MgCl2, 0.5; NaHCO3, 24.9; NaH2 PO4, 1.0; glucose, 11.1. Indomethacin, a cyclooxygenase inhibitor, is also present in a concentration of 5×10^-6 M. The tissue baths are constantly aerated with 95% O2 and 5% CO2. Tissues are placed under a passive tension of 2 g and allowed a 50 minute equilibration period before beginning experiments. This technique is standard for studying the effects of drugs on airway smooth muscle (Krell, R. D., J. Pharmacol. Exp. Ther. 211: 436, 1979; Kneussel, M. P. and Richardson, J. B., J. Appl. Physiol. 45: 307, 1978; Fleisch, J. H. and Calkins, P. J., J. Appl. Physiol. 41: 62, 1976).
Tissues are set up in groups of eight--four are used as time/vehicle controls and the remaining four for experimental compounds. No fewer than 4 tissues are used for each test compound. All tissues are exposed to 8×10^-9 M LTD4, following the 50 minute equilibration period, and the response recorded. This concentration of LTD4 is that which produces a contraction equal to about 70-80% of the maximal effect of the agonist in this tissue. The LTD4 is washed out for 20-25 minutes and the procedure repeated twice to insure that reproducible responses are being obtained with LTD4. LTC4, at a concentration of 8×10^-9 M, may be substituted for LTD4 in the same procedure.
Once tissue reproducibility has been established test compounds are added to four baths following the […] washout period. After a 10 minute incubation with test compound or vehicle 8×10^-9 M LT's are added and the response recorded. Percent inhibition by the test compound or percent change in vehicle controls is calculated, for each tissue, according to the following equation: % inhibition=100 multiplied by (mg tension increase of preceding response minus mg tension increase in presence of compound) divided by mg tension increase of preceding response. The means of the percent changes for vehicle controls and test compound are calculated and evaluated for significant differences by Students' t-test for unpaired data. Tissues exposed to agents were retested for responsiveness to LTD4 or C4 following a 25 minute washout period. […]

Compound | activity as an SRS-A antagonist
CCCc1c(OCc2ccc(C=CC(=O)O)cc2OC)ccc(C(C)=O)c1O [Example 22, 3-Methoxy-4-(4-acetyl-3-hydroxy-2-propylphenoxy)methylcinnamic acid] | Particularly active
CCCc1c(OCc2ccc(OCC(=O)O)cc2)ccc(C(C)=O)c1O [Example 7, 4-(4-Acetyl-3-hydroxy-2-propylphenoxy)methylphenoxyacetic acid] | Particularly active
CCCc1c(OCc2ccc(C(=O)O)cc2OC)ccc(C(C)=O)c1O [Example 4, 3-Methoxy-4-(4-acetyl-3-hydroxy-2-propylphenoxy)methylbenzoic acid] | Particularly active
CCCc1c(OCc2ccc(/C=C/C(=O)O)cc2)ccc(C(C)=O)c1O [Example 16, 4-(4-Acetyl-3-hydroxy-2-propylphenoxy)methylcinnamic acid] | Particularly active
